In article PMC8949075, “Evaluation of Two Novel Hydantoin Derivatives Using Reconstructed Human Skin Model Episkin^TM: Perspectives for Application as Potential Sunscreen Agents” (Molecules, 2022):

Key:
[1] = Incubation in buffer (pH 7.4) without HLMs (spontaneous hydrolysis control); type: physicochemical; conditions: buffer pH = 7.4, no HLMs, 30 min, 37 °C
Protocol: Supernatant analysis was performed using UHPLC/MS (Waters Corporation, Milford, MA, USA). Two control samples were prepared with each incubation set. The first, a mixture of a test compound and potassium phosphate buffer, and without the addition of HLMs nor the NADPH-regenerating system, was used to exclude the possibility of hydrolysis facilitated by the buffer solution. The second, a mixture of a test compound, potassium phosphate buffer and HLMs, but without the NADPH-regenerating system solution, was designed to evaluate the production of metabolites in the presence of enzymes but the absence of NADPH [14, 82]. The assays were repeated two times. The in vitro half time (t1/2) for JH3 was established from the slope of the linear regression of ln percent parent compound remaining against incubation time. Intrinsic clearance (Clint) was obtained from the equation: Clint = (volume of incubation [µL] (i.e., 250 µL)/protein in the incubation [mg] (i.e., 0.2 mg)) × 0.693/t1/2 [83, 84, 85].

[2] = tested on: MCF-7 breast cancer model; parameters: method as in PMID 31238526; conditions: cited from earlier work
[3] = tested on: Episkin^TM reconstructed human epidermis; test: Episkin skin permeation test (finite dose, OECD 428); type: in vitro ADME; conditions: for absorbed amount detected in the RF (of the applied dose) / amount remaining on the surface of the Episkin: 24 h exposure, 10 mg/cm^2 finite dose
Protocol: (§1) The MM was provided by the manufacturer.
(§2) The receptor fluid composition was based on the pilot experiments.
(§3) The formulations of the test compounds (JH3 and JH10) and commercial UV filters were applied onto the skin surface in the donor compartment in a net dose of 10 mg/cm^2 (finite dose application) using disposable flexible loops. To quantify the dose of the formulation applied on the top of the Episkin^TM model, the loops were weighed, filled with approximately 11 mg of formulation, and then reweighed. The difference in weight was used as the amount of formulation applied. Commercial UV filters such as BP3, 4MBC, and AVO were used as reference standards. The filters were obtained from Sigma-Aldrich, Darmstadt, Germany.
(§4) The plate with tissues was embedded with parafilm and incubated at specific time points at 32 °C. As the passive diffusion of chemicals (and therefore their skin absorption) is affected by temperature, the diffusion chamber and skin were maintained at a constant temperature close to normal skin temperature of 32 ± 1 °C [19, 23, 30, 32]. At fixed time points (0, 1, 2, 3, 4, 5, 6, and 24 h), aliquots of the receptor fluid (0.5 mL) were collected from the receptor compartment and immediately replaced with fresh fluid. After 24 h the entire receptor fluid was collected, and the skin surface was washed thoroughly with cotton buds impregnated in methanol (5 times). The tissues were removed from the inserts and both the donor and receptor compartments were washed separately with methanol. The samples were stored at −20 °C until chemical analysis.
(§5) All samples were spiked with 25 µL of pentoxifylline (PTX, Sigma-Aldrich, Darmstadt, Germany) (final concentration of 20 µM) used as an internal standard prior to extraction. The samples were analyzed using ultra high-pressure liquid chromatography coupled with mass spectrometry (UHPLC/MS; Waters Corporation, Milford, MA, USA). Quantification was based on peak area and calculated from standard calibration curves of the compound adjusted by the internal standard area. The assay was in agreement with the Organization for Economic Co-operation and Development (OECD) guideline 428 [19].

[4] = as above; type: in vitro ADME, human; conditions: human; 24 h exposure, 10 mg/cm^2 finite dose, 2% formulation; read-out: recovery in the epidermis (of the applied dose)
Protocol: as §1, §2, §3, §4, §5

[5] = tested on: CHO-K1 cells; test: In vitro micronucleus assay; type: cell-based, Chinese hamster; conditions: for DB (dicentric bridges) / MN (micronuclei) / NB (nuclear buds): count in 1000 binucleated cells per slide; for effect on MN, DB, NB and NDI: 1, 5 and 10 µM
Protocol: The CHO-K1 cells were seeded in 6-well plates at a density of 1 × 10^6 cells/well and incubated overnight at 37 °C, 5% CO2 atmosphere. […] The test compounds and 4MBC were dissolved in DMSO (solvent, final concentration 0.1%) and ethanol (co-solvent, final concentration 1%). After 24 h of treatment, the medium was removed, and the cells were rinsed with PBS. Then, fresh medium containing cytochalasin B (CytB; Sigma Aldrich, Darmstadt, Germany) (4.5 µg/mL) was added and incubation was continued for the next 24 h.
After the incubation period, the cells were washed with fresh medium, detached by trypsinization, and centrifuged. The supernatant was discarded and 5 mL of 1% ice-cold sodium citrate (Chempur, Piekary Śląskie, Poland) was added to the cell pellet, which was then gently resuspended. After 15 s, 5 mL of freshly prepared fixative solution (methanol/acetic acid, 3:1) and 4 drops of formaldehyde were added. The cell suspension was centrifuged (5 min, 1000 rpm), the supernatant was discarded again, and the pellet was fixed in fixative mixture two more times, without formaldehyde. After the third fixation, part of the supernatant was removed, and around 1 mL of the supernatant was retained to resuspend the cells. The suspension was then dripped onto clean, previously frozen, glass slides to dry. After air-drying, the slides were stained with Giemsa dye (1:20 in phosphate buffer) for 5 min [56, 78, 79].
One thousand binucleated cells per slide with intact nuclei of equal size, similar pattern of cytoplasm staining, intact membrane, and distinguishable from adjacent cells, without apoptotic and necrotic cells were analyzed. Only the micronuclei with the same morphology and color of the main nuclei, with 1/16 to 1/3 of the major nucleus diameter, unrefringent and not overlapping or connected to the main nuclei were counted. Moreover, the presence of dicentric bridges (DB) and nuclear buds (NB) in the binucleated cells was analyzed. The nuclear division index (NDI) was calculated using the following formula: [(1 × MOC) + (2 × BC) + (3 × MUC)]/N, where MOC is the number of mononuclear cells, BC is the number of binuclear cells, MUC represents the number of multinuclear cells, and N is the total number of scored cells. The micronucleus incidence was presented as a number of micronuclei per 1000 examined binuclear cells. The experiment was conducted two times with three repetitions for each condition.

[6] = parameters: method as in PMID 31238526; conditions: cited from earlier work

SMILES | spontaneous hydrolysis in buffer [1] | estrogenic activity [2] | absorbed amount detected in the RF (of the applied dose) ([3]; 2% formulation) | amount remaining on the surface of the Episkin ([3]; 2% formulation) | recovery at 24 h, 2 % in formulation [4] | NDI (nuclear division index) ([5]; 1 µM) | DB (dicentric bridges) ([5]; 1 µM) | MN (micronuclei) ([5]; 1 µM) | NB (nuclear buds) ([5]; 1 µM) | NDI (nuclear division index) ([5]; 5 µM) | DB (dicentric bridges) ([5]; 5 µM) | MN (micronuclei) ([5]; 5 µM) | NB (nuclear buds) ([5]; 5 µM) | NDI (nuclear division index) ([5]; 10 µM) | DB (dicentric bridges) ([5]; 10 µM) | MN (micronuclei) ([5]; 10 µM) | NB (nuclear buds) ([5]; 10 µM) | effect on MN, DB, NB and NDI [5] | photostability [6] | other results
CCOC(=O)CN1C(=O)/C(=C/c2ccc(OC)cc2)N(CC(=O)OCC)C1=O [JH10, diethyl 2,2′-((Z)-4-(4-methoxybenzylidene)-2,5-dioxoimidazolidine-1,3-diyl)diacetate] | no signs of spontaneous hydrolysis | no estrogenic activity | 48% | 45% | 7% | 1.31 | 3.5 | 9.0 ± 3.9 | 4.3 | 1.38 | 3.8 | 11.2 ± 3.6 | 5.2 | 1.47 | 3.5 | 9.5 ± 3.7 | 3.2 | did not significantly alter any of the evaluated parameters | photostable | amount in the receptor fluid (RF) ([3]; after the first hour of exposure, 2% formulation, 10 mg/cm^2): 1 µg/cm^2
CCOC(=O)CN1C(=O)/C(=C/C=C/c2ccc(OC)cc2)N(CC(=O)OCC)C1=O [JH3, diethyl 2,2′-((Z)-4-((E)-3-(4-methoxyphenyl)allylidene)-2,5-dioxoimidazolidine-1,3-diyl)diacetate] | no signs of spontaneous hydrolysis | no estrogenic activity | 1% | 95% | 3% | 1.45 | 3.8 | 10.1 ± 3.3 | 3.6 | 1.40 | 4.1 | 10.5 ± 3.9 | 3.5 | 1.32 | 3.6 | 12.0 ± 4.2 | 5.4 | did not significantly alter any of the evaluated parameters | photostable | detectable amount in RF, fold lower than that of JH10 ([3]; after 24 h exposure): about 28 fold; detection in the receptor fluid over time ([3]; sampling 0-6 and 24 h, 2% formulation, 10 mg/cm^2): undetectable in the RF in the first six hours
